Data set [1] can be described thus: Inhibition of cysteine protease in Schistosoma mansoni assessed as reduction in schistosomula viability incubated for 7 days by inverted microscopy analysis.
Data set [2] is described as follows: Inhibition of cysteine protease in Schistosoma mansoni assessed as reduction in schistosomula viability incubated for 3 days by inverted microscopy analysis.
For the next data set, the target named is T1, Papain (Carica papaya, UniProt P00784).
T1 sequence (P00784 whole entry): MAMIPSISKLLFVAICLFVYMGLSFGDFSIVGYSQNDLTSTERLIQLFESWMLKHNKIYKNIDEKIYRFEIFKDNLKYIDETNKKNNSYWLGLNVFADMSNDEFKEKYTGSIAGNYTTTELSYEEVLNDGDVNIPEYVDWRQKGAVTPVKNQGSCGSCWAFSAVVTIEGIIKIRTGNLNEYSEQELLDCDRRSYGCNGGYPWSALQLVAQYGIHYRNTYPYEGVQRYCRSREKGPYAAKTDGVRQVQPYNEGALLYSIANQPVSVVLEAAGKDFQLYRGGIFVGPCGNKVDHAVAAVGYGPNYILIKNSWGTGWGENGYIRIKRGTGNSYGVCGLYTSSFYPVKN
The experiment in a line: Inhibition of papaya papain assessed as reduction in p-nitoaniline release using Nalpha-benzoyl-L-arginine 4-nitroanilide hydrochloride as substrate measured after 1 hr.

Data set [3] can be described thus: Aqueous stability of the compound in 0.1 M sodium phosphate buffer at pH 6 to 7 incubated under shaken condition by HPLC analysis. The class given is physicochemical.
Data set [4] in a line: Aqueous stability of the compound in 0.1 M sodium phosphate buffer assessed as half life at pH 8 incubated under shaken condition by HPLC analysis. Format: physicochemical.
The nature of data set [5]: Aqueous stability of the compound in 0.1 M sodium phosphate buffer assessed as half life at pH 7 incubated under shaken condition by HPLC analysis. Format: physicochemical.
The nature of data set [6]: Aqueous stability of the compound in 0.1 M sodium phosphate buffer assessed as half life at pH 6 incubated under shaken condition by HPLC analysis. The class given is physicochemical.
Data set [7] is described as follows: Aqueous stability of the compound in 0.1 M sodium phosphate buffer assessed as time taken for drug degradation at pH 7 to 8 incubated under shaken condition by HPLC analysis. The class given is physicochemical.

We go through twelve compounds from ChEMBL document CHEMBL4665655, “Highly tunable thiosulfonates as a novel class of cysteine protease inhibitors with anti-parasitic activity against Schistosoma mansoni” (Bioorg Med Chem, 2019).

As usually defined, the IC50 is the midpoint of a concentration-inhibition curve. As usually defined, the half-life is the time needed for the level to fall by half in the phase considered.

Take `CN1CCN(C(=O)N[C@@H](Cc2ccccc2)C(=O)N[C@@H](CCc2ccccc2)CSS(=O)(=O)C2CCCCC2)CC1.O=C(O)C(F)(F)F`: the IC50 in data set [1] is 13500 nM; in data set [2], 25400 nM; on Papain it was 168 nM. In data set [3], the Stabilty entry is reported as “Stable”. In addition, the half-life in data set [4] is 6 h.
Take `CN1CCN(C(=O)N[C@@H](Cc2ccccc2)C(=O)N[C@@H](CCCNC(=N)N)CSS(=O)(=O)c2ccc([N+](=O)[O-])cc2)CC1`: the IC50 on Papain stood at 129 nM.
The same measure, in the same setting: the value for `COc1ccc(S(=O)(=O)SC[C@H](CCCNC(=N)N)NC(=O)[C@H](Cc2ccccc2)NC(=O)N2CCN(C)CC2)cc1` was 124 nM.
Same read-out and setting: for `CN1CCN(C(=O)N[C@@H](Cc2ccccc2)C(=O)N[C@@H](CCCNC(=N)N)CSS(=O)(=O)C2CCCCC2)CC1` the value was 106 nM; for `Cc1ccc(S(=O)(=O)SC[C@H](CCCNC(=N)N)NC(=O)[C@H](Cc2ccccc2)NC(=O)N2CCN(C)CC2)cc1`, 162 nM.
With `CN1CCN(C(=O)N[C@@H](Cc2ccccc2)C(=O)N[C@@H](CCc2ccccc2)CSS(=O)(=O)c2ccccc2)CC1`, the results for the IC50 (in data set [1]; in data set [2]; at Papain) were 21400 nM, 64400 nM and 190 nM, respectively.
As to `COc1ccc(S(=O)(=O)SC[C@H](CCc2ccccc2)NC(=O)[C@H](Cc2ccccc2)NC(=O)N2CCN(C)CC2)cc1.O=C(O)C(F)(F)F`, the IC50 in data set [1] is 13600 nM; in data set [2] it was 44900 nM; at Papain it was 148 nM. Further, the figures for the half-life in data set [5] and in data set [6] were 24 h and 1 h, respectively.
Consider `Cc1ccc(S(=O)(=O)SC[C@H](CCc2ccccc2)NC(=O)[C@H](Cc2ccccc2)NC(=O)N2CCN(C)CC2)cc1`, for which the IC50 amounted to 26900 nM in data set [1], 41100 nM in data set [2] and 182 nM on Papain.
With `CN1CCN(C(=O)N[C@@H](Cc2ccccc2)C(=O)N[C@@H](CCc2ccccc2)CSS(=O)(=O)c2ccc([N+](=O)[O-])cc2)CC1.O=C(O)C(F)(F)F`, the figures for the IC50 (in data set [1]; in data set [2]; on Papain) were 14700 nM, 29300 nM and 186 nM, respectively. In data set [6], the half-life is 1.45 h. Also, in data set [7], the Time is below 1 h.
`CN1CCN(C(=O)N[C@@H](Cc2ccccc2)C(=O)N[C@@H](CCCNC(=N)N)CSS(=O)(=O)c2ccccc2)CC1`: the half-inhibitory concentration (IC50) on Papain was determined as 168 nM.
On to `O[C@@H](c1cc(C(F)(F)F)nc2c(C(F)(F)F)cccc12)[C@H]1CCCCN1` [(S,R)-MEFLOQUINE], for which the IC50 in data set [1] turned out to be 400 nM; in data set [2] it was 2400 nM.
Take `CN1CCN(C(=O)N[C@@H](Cc2ccccc2)C(=O)N[C@H](/C=C/S(=O)(=O)c2ccccc2)CCc2ccccc2)CC1` [K-777]: the results for the half-inhibitory concentration (IC50) (in data set [1]; in data set [2]; at Papain) were 7300 nM, 59900 nM and 81 nM, respectively.
